Data on 1 compound can be found in paper doi:10.1101/2022.09.03.506457v1 (biorxiv, 2022).

Usually Km stands for the substrate concentration at which the rate is half of its maximum.

For the test, the target named is T1, MjFH (MjFHαβ), holo, Fe-S reconstituted (Methanocaldococcus jannaschii, UniProt Q58034+Q58690).
T1 sequence (Q58690 1-285): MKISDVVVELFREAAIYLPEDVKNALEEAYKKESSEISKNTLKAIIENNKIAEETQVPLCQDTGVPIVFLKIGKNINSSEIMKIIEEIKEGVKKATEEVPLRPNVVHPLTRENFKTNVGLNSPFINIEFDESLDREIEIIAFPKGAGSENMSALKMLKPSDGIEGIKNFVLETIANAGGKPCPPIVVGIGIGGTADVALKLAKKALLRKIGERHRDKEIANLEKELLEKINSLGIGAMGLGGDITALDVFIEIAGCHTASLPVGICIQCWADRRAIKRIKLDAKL
T1 sequence (Q58034 1-195): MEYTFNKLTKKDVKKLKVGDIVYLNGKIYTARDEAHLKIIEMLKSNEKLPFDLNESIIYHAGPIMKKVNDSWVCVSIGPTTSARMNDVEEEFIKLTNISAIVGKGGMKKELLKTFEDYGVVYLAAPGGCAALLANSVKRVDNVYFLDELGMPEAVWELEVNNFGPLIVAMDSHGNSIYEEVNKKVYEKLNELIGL
The format is biochemical. The note with it: pH 7.2, 50 mM Tris-HCl, 70 °C.

As to `O=C(O)/C=C/C(=O)O` [fumarate], the Michaelis constant (Km) is 2790 ± 397 µM.
